From US11965161B2, “Methods and compositions for sensitization of tumor cells to immune therapy” (Regeneron Pharmaceuticals, Inc., priority 2020, dated 2024)
“Also recorded” adds a separate entry of the source. Residues, ends and D or L forms follow the SMILES beside them. *: point of attachment. Cbz = O=C(OCc1ccccc1)*; CH2F = FC*

How the values were obtained:
MC38 cells [1] = test: TNFα-induced killing of MC38 cells, cell viability (CCK-8); type: cell-based, mouse; conditions: for TNFα-mediated killing in Rb1cc1 KO cells: Rb1cc1 KO MC38 cells, 25 μM z-VAD-FMK or 50 μM Nec-1
Experimental: (§1) The effects of TNFα, TRAIL, doxorubicin or paclitaxel on cell viability were assessed following 24 hour incubations at the indicated concentrations. The effects of 5 μM autophinib or SAR-405 on TNFα (10 ng/ml) or TRAIL (10 ng/ml or 50 ng/ml) induced killing were assessed following 24 hour incubations unless otherwise indicated. In all cases, cell viability was measured using CCK8 cell counting kit-8 (CCK-8) reagent, which is reduced by dehydrogenase activities in cells to give a yellow-colored formazan dye (Dojindo). The absorbance was measured using a SpectraMax M3 microplate reader (Molecular Devices).

[2] = tested on: HCT-116 and HeLa human cancer cells; test: Western blots of HCT-116 and HeLa cells after TRAIL with or without autophinib; type: cell-based; conditions: human cancer cells (HCT-116, HeLa), 10 or 50 ng/ml TRAIL, 24 hours
Experimental: (§2) Whole cell lysates were prepared in tris-glycine SDS sample buffer (ThermoFisher) containing 5% 2-mercaptoethanol. Western blotting was performed by conventional techniques using tris-glycine polyacrylamide SDS gels (ThermoFisher) and PVDF membranes (BioRad). Blots were blocked in 5% milk powder and 0.5% Tween-20 in TBS and then incubated overnight with primary antibodies. After addition of secondary antibodies, membranes were incubated with SuperSignal West Pico Plus or Femto substrate (ThermoFisher) and luminescence was captured with a C300 imager (Azure Biosystems). Primary antibodies against TAK1, Rbck1, Re1A p65, Rb1cc1, Atg12, cleaved caspase-8, procaspase-8, RIPK1, RIPK1 phospo-Ser321, RIPK1 phospho-Ser166, Iκ-Bα, A20, p62, phospho-p65, LC3B, TNFR1 (CST), Atg9a (Novus), cIAP1 (Enzo), β2M (ThermoFisher), FADD and ICAM (Abcam) were used. Horseradish peroxidase-conjugated β-Actin antibody and secondary antibodies against mouse IgG, rabbit IgG and goat IgG were from Santa Cruz Biotechnology.

[3] = tested on: multiple mouse and human cancer cell lines; test: TNFα-mediated killing in a panel of cancer cell lines with or without autophagy inhibitor; type: cell-based; conditions: 10 ng/ml TNFα, 5 μM inhibitor, 24 hours, EMT6, LL/2, CT26, Colon26, BT-20, Me-180, MDA-MB-361, ZR-75-1
Experimental: as §1

[4] = tested on: HCT-116 and HeLa human cancer cells; test: TNFα- and TRAIL-mediated killing of human cancer cells with or without autophinib, cell viability; type: cell-based; conditions: 5 μM autophinib, 24 hours
Experimental: as §1

[5] = tested on: ZR-75-1 human breast cancer cells; test: Western blots of ZR-75-1 cells (p62, caspase-8); type: cell-based; conditions: 5 μM inhibitor, 16 hours; for p62 levels: ZR-75-1 cells; for TNFα-induced activation of caspase-8: human breast cancer cells ZR-75-1, 10 ng/ml TNFα
Experimental: as §2

MC38 cells [6] = test: Western blots of MC38 cell lysates (caspase-8, p62, Iκ-Bα, phospho-S6); type: cell-based, mouse; conditions: 5 μM autophinib
Experimental: as §2

[7] = tested on: ZR-75-1 human breast cancer cells; test: CD3 bispecific antibody-induced killing of ZR-75-1 cells by human T cells; type: cell-based; conditions: 12 ng/ml bispecific antibody, 5 μM SAR-405, 24 hours
Description: CD8^+ T cells were isolated from spleens and lymph nodes of 6-8 week old male OT-1 mice. These mice contain transgenic inserts for mouse Tcra-V2 and Tcrb-V5 genes. The transgenic T cell receptor was designed to recognize ovalbumin peptide residues 257-264 in the context of H-2Kb MHC class I protein. In some experiments, human CD8+ T cells were isolated from PBMCs. T cells were activated in vitro with CD3/CD28 beads at a 1:2 bead:cell ratio for 2-3 days. T cells were activated in RPMI-1640 medium containing 20 ng/ml mouse IL-2, 10% heat inactivated fetal bovine serum, 20 mM HEPES, 2 mM L-glutamine, 1 mM sodium pyruvate, 0.05 mM 2-mercaptoethanol and 50 U/ml penicillin/streptomycin. For human tumor cell killing experiments using CD3 bispecific antibody, human T cells were isolated from peripheral blood mononuclear cells (PBMCs) (ReachBio) using Dynabeads Untouched Human T Cells Kit (Thermo Fisher Scientific).
Human ZR-75-1 cells were seeded at 100,000 cells per 24 well. After 24 hours, cells were incubated with activated CD8^+ T cells (isolated from human PBMCs) at the indicated E:T ratios for 24 hours in the presence of 12 ng/ml breast tumor antigen×CD3 or control (doesn't bind to ZR-75-1 cells) bispecific antibodies in the absence or presence of 5 μM autophagy inhibitor SAR-405.

[8] = tested on: CT26, B16F10, 4T1, EMT6, MC38 tumor cell lines; test: TNFα-induced caspase-8 activation and apoptosis in a panel of tumor cell lines; type: cell-based, mouse; conditions: 24 hours
Experimental: as §1
Whole cell lysates were prepared in tris-glycine SDS sample buffer (ThermoFisher) containing 5% 2-mercaptoethanol. Western blotting was performed by conventional techniques using tris-glycine polyacrylamide SDS gels (ThermoFisher) and PVDF membranes (BioRad). Blots were blocked in 5% milk powder and 0.5% Tween-20 in TBS and then incubated overnight with primary antibodies. After addition of secondary antibodies, membranes were incubated with SuperSignal West Pico Plus or Femto substrate (ThermoFisher) and luminescence was captured with a C300 imager (Azure Biosystems). […]

Molecule: COC(=O)C[C@H](NC(=O)[C@H](C)NC(=O)[C@@H](NC(=O)OCc1ccccc1)C(C)C)C(=O)CF [z-VAD-FMK] (Cbz-Val-Ala-Asp(OMe)-CH2F)
- TNFα killing of MC38 cells in presence of caspase inhibitor (MC38 cells [1]; 25 μM z-VAD-FMK, 10 ng/ml TNFα, 24 hours): blocked
- TNFα-mediated killing in Rb1cc1 KO cells (MC38 cells [1]; 24 hours): blocked

Molecule: Cc1cc(Nc2cc(Cl)nc(Oc3ccc([N+](=O)[O-])cc3)n2)n[nH]1 [autophinib]
- activation of caspase-8 by TRAIL [2]: increased
- TNFα-mediated killing (relative cell viability) (MC38 cells [1]; MC38 cells, 10 ng/ml TNFα, 5 μM autophinib, 16 hours): increased
- killing by TNFα in multiple mouse and human cancer cell lines [3]: significantly increased; also recorded: sensitizes
- sensitization to TNFα- and TRAIL-mediated killing ([4]; HCT-116 (10 ng/ml TNFα or TRAIL), HeLa (50 ng/ml TRAIL)): sensitizes
- induction of apoptosis by TRAIL ([4]; human cancer cells (HCT-116, HeLa), 10 or 50 ng/ml TRAIL): increased
- p62 levels [5]: significantly increased
- TNFα-induced activation of caspase-8 [5]: enhanced
- TNFα-mediated degradation of Iκ-Bα (MC38 cells [6]; 10 ng/ml TNFα 30 minutes): did not affect
- TNFα-mediated caspase-8 activation (MC38 cells [6]; 10 ng/ml TNFα 4 hours): increased
- levels of p62 (MC38 cells [6]; 4 hours): significantly increased

Molecule: CN1C(=O)C(Cc2c[nH]c3ccccc23)NC1=S (stereo not drawn) [necropsis inhibitor]
- TNFα-mediated killing in Rb1cc1 KO cells (MC38 cells [1]; 24 hours): had no effect

Molecule: C[C@@H]1COCCN1c1cc(=O)n2c(n1)N(Cc1cncc(Cl)c1)[C@H](C(F)(F)F)CC2 [SAR405]
- tumor cell killing by human T cells with breast tumor antigen×CD3 bispecific antibody [7]: significantly increased
- killing by TNFα in multiple mouse and human cancer cell lines [3]: significantly increased
- killing by TNFα in multiple mouse and human cancer cell lines ([3]; listed as SAR-405): sensitizes
- p62 levels [5]: significantly increased
- TNFα-induced activation of caspase-8 [5]: enhanced

B1: TNFα: Recombinant mouse and human TNFα from PeproTech (protein)
chain: LRSSSQNSSDKPVAHVVANHQVEEQLEWLSQRANALLANGMDLKDNQLVVPADGLYLVYSQVLFKGQGCPDYVLLTHTVSRFAISYQEKVNLLSAVKSPCPKDTPEGAELKPWYEPIYLGGVFQLEKGDQLSAEVNLPKYLDFAESGQVYFGVIAL
- MC38 cell death by soluble TNFα (MC38 cells [1]; 10 ng/ml TNFα, 24 hours): promoted MC38 cell death
- killing by TNFα ([8]; CT26, B16F10, 4T1 cells): not killed
- TNFα-induced caspase-8 activation and apoptosis ([8]; EMT6 and MC38 cells): exhibited TNFα-induced caspase-8 activation and apoptosis
